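Where inhibition never reached the appropriate level, the endpoint shown equals the highest concentration tested. Otherwise, values were interpolated linearly from a five-concentration, 48-hour dose response in 96-well plates. At the TGI there is no net growth.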

Assay in all cases: DTP human tumour cell line panel, 48 h
Experiment [1] concerns COLO 205 colon.
The test system of experiment [2] is KM12 colon.
For experiment [3], the system named is OVCAR-5 ovarian.
Experiment [4] deals with IGROV1 ovarian.
Experiment [5] relates to SNB-19 CNS.
For experiment [6], the system named is SNB-75 CNS.
Experiment [7] relates to SK-OV-3 ovarian.
Experiment [8] relates to TK-10 renal.
The subject of experiment [9] is CCRF-CEM leukemia.
Experiment [10] has as its system LOX IMVI melanoma.

`NS(=O)(=O)c1ccc(N=Nc2ccc(O)c(C(=O)O)c2)cc1`: the TGI in experiment [1], in experiment [2], in [3], in experiment [4], in experiment [5] and in experiment [6] was over 100 µM each time. The concentration for total growth inhibition (TGI) in experiment [7] and in experiment [8] was over 100 µM throughout.
For `CN(C)CCCNC(=O)c1cn2c(ccc3sc4ccccc4c(=O)c32)n1`, the TGI in experiment [1] was 7.95 µM; in experiment [2], 37.6 µM; in [3], 22.8 µM; in [4] it was 27.4 µM; in experiment [9], over 20.1 µM; in experiment [5], 31.8 µM. The concentration for total growth inhibition (TGI) in experiment [6] came to 30.5 µM; in experiment [7], 30.7 µM; in experiment [8], 30.9 µM.
As for `CCCCCCCCCCCCO[P+](=O)OCCCCCCCCCCCC`, the TGI is over 100 µM in experiment [1]; 72.2 µM in experiment [2]; over 100 µM in [3]; over 100 µM in experiment [4]; over 100 µM in [9]; over 100 µM in [5]. In addition, the TGI in experiment [6] is over 100 µM; in experiment [7], over 100 µM; in [8] it was 99.2 µM.
`Cc1cc2ccc(N)nc2[nH]c1=O`: the TGI in [1], in experiment [2], in [3], in experiment [4], in [5] and in [6] was over 100 µM each time. For the same compound, the TGI in [7] and in experiment [8] was over 100 µM each time.
In the case of `CCCCC[C@H]1CCCCCCCCCC(=O)OC2C(O[C@@H]3OC(C)[C@H](OC(=O)[C@@H](C)CC)C(O[C@@H]4OC(C)[C@H](O)C(O)[C@@H]4O)[C@@H]3OC(=O)[C@H](C)CC)[C@H](OC3C(O)[C@@H](O)C(C)O[C@H]3O1)OC(CO)[C@H]2O` (stereo partly drawn), the TGI stood at 25 µM in [1]; 35.8 µM in experiment [2]; 30.6 µM in experiment [3]; 31.8 µM in experiment [4]; 32.5 µM in experiment [9]; 32.1 µM in experiment [5]. The figures for the concentration for total growth inhibition (TGI) in [7], in [10] and in experiment [8] were 29.3 µM, 31.4 µM and 34.3 µM, respectively.
On to `O=[N+]([O-])/C(C(Cl)=C(Cl)Cl)=C(/Nc1ccccc1)Sc1ccccc1`, for which the total growth inhibition concentration (TGI) in experiment [1] was 34.8 µM; in experiment [2], 36 µM; in experiment [4] it was 48.1 µM; in experiment [9], 36.6 µM; in experiment [5], 34.3 µM; in experiment [7], 42.9 µM. Also, the total growth inhibition concentration (TGI) in [10] was 30.7 µM; in [8], 59.8 µM.
`CC(NC(=O)C(Cc1ccc(OC(=O)c2ccccc2)cc1)NC(=O)OC(C)(C)C)C(=O)NCC(=O)NC(Cc1ccccc1)C(=O)NN` (stereo not drawn): the TGI in experiment [1] was 53.2 µM; in experiment [2] it was over 100 µM; in experiment [3] it was over 100 µM; in experiment [4] it was over 100 µM; in experiment [5], over 100 µM; in experiment [6], over 100 µM. In addition, the concentration for total growth inhibition (TGI) in experiment [7] was over 100 µM; in [10] it was 45 µM; in experiment [8], over 100 µM.
In the case of `CC(C)(C)[Si](C)(C)OC[C@H](/C=C\CCCC(=O)O)NC1(c2ccccc2)c2ccccc2-c2ccccc21`, the TGI in [1] was 26.5 µM; in experiment [2] it was 48.8 µM; in experiment [3], 76.6 µM; in experiment [4] it was 97 µM; in [5], over 100 µM; in [6] it was over 100 µM. Moreover, the TGI in experiment [7] is 72.8 µM; in [10], 25.5 µM; in experiment [8], over 100 µM.
For the compound `O=[N+]([O-])C(C=C(n1nnc2ccccc21)n1nnc2ccccc21)=C(n1nnc2ccccc21)n1nnc2ccccc21`, the TGI in experiment [1], in experiment [2], in experiment [3], in experiment [4], in experiment [9] and in [5] was over 100 µM throughout. Besides, the TGI in experiment [7], in [10] and in experiment [8] was over 100 µM each time.
As to `CC(C)=NOC(=O)Nc1cccc2c1OCO2`, the TGI in experiment [1], in [2], in [3], in [4], in [5] and in [6] was over 100 µM throughout. Also, the TGI in experiment [7], in experiment [10] and in experiment [8] was over 100 µM throughout.
Regarding `O=C(Cc1ccccc1)NN1C(=O)/C(=C\c2ccccc2O)SC1=Nc1ccccc1`, the TGI in experiment [1], in experiment [2], in experiment [3], in [4], in experiment [5] and in experiment [6] was over 100 µM each time. Besides, the TGI in experiment [7] and in experiment [8] was over 100 µM each time.
In the case of `O=S(=O)(O)c1ccc2c(N=Nc3ccc(Sc4ccc(N=Nc5c(O)ccc6cc(S(=O)(=O)O)ccc56)cc4)cc3)c(O)ccc2c1`, the TGI in experiment [1], in experiment [2], in experiment [3], in [4], in [9] and in experiment [5] was over 100 µM each time. Further, the TGI in experiment [7] and in [8] was over 100 µM throughout.
As for `Cc1cc(=O)oc2c(CNC(CC(C)C)C(=O)O)c(O)ccc12` (stereo not drawn), the TGI in experiment [1], in experiment [2], in [3], in [4], in experiment [5] and in [6] was over 100 µM throughout. The TGI in [7], in [10] and in experiment [8] was over 100 µM in each case.
For `CCOC(=O)C(C(=O)COC(C)(C)C)[C@@H]1C=C[C@H](OC(C)=O)C1` (stereo partly drawn), the TGI in experiment [1], in experiment [2], in experiment [3], in [9], in experiment [5] and in experiment [6] was over 100 µM in each case. The same compound had a TGI in [7] of over 100 µM.
For the compound `O=S(=O)(O)c1cc(S(=O)(=O)O)c2c(N=Nc3ccc(N=Nc4ccccc4)cc3)c(O)ccc2c1`, the TGI in experiment [1], in [2], in experiment [3], in experiment [4], in experiment [9] and in [5] was over 100 µM each time. The TGI in experiment [6], in experiment [7] and in [8] was over 100 µM throughout.

These data come from PubChem BioAssay (NCI).
